The results in this text go back to ChEMBL document CHEMBL1126245, “Synthesis and anti-HIV activity of 9-[c-4,t-5-bis(hydroxymethyl)cyclopent-2-en-r-1-yl]-9H-adenine” (J Med Chem, 1992).

One series concerns MT4. The experiment in a line: In vitro antiviral activity against HIV-1 in MT-4 Cell. The class given is functional. As to conditions: Homo sapiens; for EC50: read-out: ED50 (the source's name); for IC50: read-out: ID50 (the source's name).
Series [1] is described as follows: Therapeutic index (TI) was determined by dividing the ID50 by the ED50. The note with it: human, MT4 cells; read-out: TI. The class given is cell-based.

Values after ≈ are worked out from the molar mass of the structure shown.

As to `Nc1nc(O)c2ncn(C3C=CC(CO)C3CO)c2n1` (stereo not given), in the series with MT4, the EC50 is > 100 µg/mL and the IC50 was > 100 µg/mL.

For the compound `Nc1ccn([C@H]2CC[C@@H](CO)O2)c(=O)n1` [ZALCITABINE], in the series on MT4, the EC50 was 0.011 µg/mL (≈ 0.0521 µM) and the IC50 stood at 27 µg/mL (≈ 128 µM). The selectivity ratio in series [1] turned out to be 2450.
